Here are results for 36 compounds from ChEMBL document CHEMBL1137718, “Topological descriptors in modeling the agonistic activity of human A3 adenosine receptor ligands: the derivatives of 2-chloro-N(6)-substituted-4'-thioadenosine-5'-uronamide” (Eur J Med Chem, 2009).

The structures appear in SMILES notation.

The target in the assay is T1, Adenosine receptor A3 (Homo sapiens, UniProt P0DMS8).
T1 sequence (P0DMS8 whole entry): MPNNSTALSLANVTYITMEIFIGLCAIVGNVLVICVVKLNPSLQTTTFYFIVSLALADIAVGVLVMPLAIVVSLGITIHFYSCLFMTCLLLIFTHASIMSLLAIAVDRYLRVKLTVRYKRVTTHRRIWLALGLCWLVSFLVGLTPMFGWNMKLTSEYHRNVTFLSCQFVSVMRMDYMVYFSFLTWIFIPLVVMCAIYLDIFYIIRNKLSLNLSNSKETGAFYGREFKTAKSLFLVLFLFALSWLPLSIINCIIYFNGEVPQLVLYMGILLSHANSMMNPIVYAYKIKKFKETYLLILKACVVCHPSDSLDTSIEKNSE
Description: Displacement of [125I][…] from human adenosine A3 receptor expressed in CHO cells. In kind it is cell-based. On the technique in general: In a radioligand displacement assay an active substance lowers the binding of a labelled ligand.

The Ki is the equilibrium dissociation constant of an inhibitor or competing ligand from its target. Low values mean tighter binding, high ones weaker binding. Consider `CNc1nc(Cl)nc2c1ncn2[C@@H]1O[C@H](C(=O)NCc2cccc(F)c2)[C@@H](O)[C@H]1O`, for which the affinity, expressed as Ki, was 17.4 nM.

The compound `Cc1ccccc1CNc1nc(Cl)nc2c1ncn2[C@@H]1O[C@H](C(=O)N2CCC(Cc3ccccc3)CC2)[C@@H](O)[C@H]1O` showed an inhibition constant Ki of 49000 nM.

Regarding `O=C(NCCC(c1ccccc1)c1ccccc1)[C@H]1O[C@@H](n2cnc3c(NCc4cccc(I)c4)nc(Cl)nc32)[C@H](O)[C@@H]1O`, affinity was put at a Ki of 347 nM.

In the case of `O=C([C@H]1S[C@@H](n2cnc3c(NCc4cccc(I)c4)nc(Cl)nc32)[C@H](O)[C@@H]1O)N1CCC(Cc2ccccc2)CC1`, the inhibition constant Ki is 871 nM. This Ki lies about 2.5-fold higher than the previous one.

On to `O=C(NCCc1ccccc1)[C@H]1O[C@@H](n2cnc3c(NCc4cccc(I)c4)nc(Cl)nc32)[C@H](O)[C@@H]1O`, for which the inhibitory constant (Ki) is 437 nM.

`CCNC(=O)[C@H]1O[C@@H](n2cnc3c(NCc4ccccc4C)nc(Cl)nc32)[C@H](O)[C@@H]1O` had a Ki of 2.51 nM.

`Cc1ccccc1CNc1nc(Cl)nc2c1ncn2[C@@H]1O[C@H](C(=O)NC2CC2)[C@@H](O)[C@H]1O` showed a Ki of 27.5 nM.

With `Cc1ccccc1CNc1nc(Cl)nc2c1ncn2[C@@H]1O[C@H](C(=O)NCC2CC2)[C@@H](O)[C@H]1O`, the Ki was 29.5 nM.

Take `O=C(NC1CCC1)[C@H]1S[C@@H](n2cnc3c(NCc4cccc(I)c4)nc(Cl)nc32)[C@H](O)[C@@H]1O`: the Ki is 18.2 nM.

In turn, `O=C([C@H]1S[C@@H](n2cnc3c(NCc4cccc(I)c4)nc(Cl)nc32)[C@H](O)[C@@H]1O)N1CCOCC1` had an inhibitory constant (Ki) of 513 nM.

Consider `Cc1ccccc1CNc1nc(Cl)nc2c1ncn2[C@@H]1O[C@H](C(=O)N2CCOCC2)[C@@H](O)[C@H]1O`, for which affinity was put at a Ki of 7590 nM.

Consider `O=C(NCc1cccc(Cl)c1)[C@H]1O[C@@H](n2cnc3c(NCc4cccc(I)c4)nc(Cl)nc32)[C@H](O)[C@@H]1O`, for which the affinity corresponds to a Ki of 309 nM.

On to `CNc1nc(Cl)nc2c1ncn2[C@@H]1O[C@H](C(=O)N(C)C)[C@@H](O)[C@H]1O`, for which the inhibition constant Ki is 1510 nM.

On to `CNc1nc(Cl)nc2c1ncn2[C@@H]1O[C@H](C(=O)N2CCN(c3ccc(F)cc3)CC2)[C@@H](O)[C@H]1O`, for which the Ki is 2690 nM.

Take `CNC(=O)[C@H]1O[C@@H](n2cnc3c(N)nc(Cl)nc32)[C@H](O)[C@@H]1O`: the Ki was 0.398 nM.

Compound `CNc1nc(Cl)nc2c1ncn2[C@@H]1O[C@H](C(=O)NCC2CC2)[C@@H](O)[C@H]1O` had a Ki of 1.1 nM.

Take `CNc1nc(Cl)nc2c1ncn2[C@@H]1O[C@H](C(=O)NCCC(C)C)[C@@H](O)[C@H]1O`: affinity was put at a Ki of 1.62 nM.

With `CNc1nc(Cl)nc2c1ncn2[C@@H]1O[C@H](C(=O)N2CCOCC2)[C@@H](O)[C@H]1O`, the Ki was 3890 nM.

Compound `CNc1nc(Cl)nc2c1ncn2[C@@H]1O[C@H](C(=O)N2CCC(Cc3ccccc3)CC2)[C@@H](O)[C@H]1O` had a Ki of 3470 nM.

In the case of `CCNC(=O)[C@H]1S[C@@H](n2cnc3c(NCc4cccc(I)c4)nc(Cl)nc32)[C@H](O)[C@@H]1O`, the Ki is 0.891 nM.

Regarding `CC(C)CCNC(=O)[C@H]1O[C@@H](n2cnc3c(NCc4cccc(I)c4)nc(Cl)nc32)[C@H](O)[C@@H]1O`, the inhibition constant (Ki) is 41.7 nM. This Ki lies about 47-fold higher than the previous one.

Take `O=C(NC1CC1)[C@H]1S[C@@H](n2cnc3c(NCc4cccc(I)c4)nc(Cl)nc32)[C@H](O)[C@@H]1O`: the Ki was 2.95 nM.

The compound `O=C(NC1CC1)[C@H]1S[C@@H](n2cnc3c(NC4CC4)nc(Cl)nc32)[C@H](O)[C@@H]1O` gave an inhibition constant Ki of 5.62 nM.

As for `CNc1nc(Cl)nc2c1ncn2[C@@H]1O[C@H](C(=O)NCCc2cccc(F)c2)[C@@H](O)[C@H]1O`, the Ki was 85.1 nM.

Turning to `CNC(=O)[C@H]1O[C@@H](n2cnc3c(NC4CC4)nc(Cl)nc32)[C@H](O)[C@@H]1O`, the affinity, expressed as Ki, was 2.24 nM.

On to `CCNC(=O)[C@H]1O[C@@H](n2cnc3c(NC4CC4)nc(Cl)nc32)[C@H](O)[C@@H]1O`, for which the affinity, expressed as Ki, was 0.676 nM.

On to `O=C([C@H]1O[C@@H](n2cnc3c(NC4CC4)nc(Cl)nc32)[C@H](O)[C@@H]1O)N1CCC(Cc2ccccc2)CC1`, for which the Ki was 3980 nM.

Compound `CNC(=O)[C@H]1S[C@@H](n2cnc3c(NC4CCCC4)nc(Cl)nc32)[C@H](O)[C@@H]1O` had a Ki of 4.27 nM.

For the compound `O=C([C@H]1O[C@@H](n2cnc3c(NCc4cccc(I)c4)nc(Cl)nc32)[C@H](O)[C@@H]1O)N1CCN(c2ccc(F)cc2)CC1`, the Ki was 1450 nM.

In turn, `O=C(NCc1cccc(C(F)(F)F)c1)[C@H]1O[C@@H](n2cnc3c(NCc4cccc(I)c4)nc(Cl)nc32)[C@H](O)[C@@H]1O` had an inhibition constant Ki of 355 nM.

`Cc1ccccc1CNc1nc(Cl)nc2c1ncn2[C@@H]1O[C@H](C(=O)N(C)C)[C@@H](O)[C@H]1O` showed an inhibitory constant (Ki) of 631 nM.

`O=C(NCC1CC1)[C@H]1S[C@@H](n2cnc3c(NCc4cccc(I)c4)nc(Cl)nc32)[C@H](O)[C@@H]1O` gave a Ki of 3.63 nM.

The compound `CNC(=O)[C@H]1O[C@@H](n2cnc3c(NCc4ccccc4C)nc(Cl)nc32)[C@H](O)[C@@H]1O` gave a Ki of 2.19 nM.

On to `CNc1nc(Cl)nc2c1ncn2[C@@H]1O[C@H](C(=O)NCCC(c2ccccc2)c2ccccc2)[C@@H](O)[C@H]1O`, for which the Ki was 417 nM.

Compound `CNc1nc(Cl)nc2c1ncn2[C@@H]1O[C@H](C(=O)NC2CC2)[C@@H](O)[C@H]1O` had an inhibition constant Ki of 2.82 nM.

`O=C([C@H]1O[C@@H](n2cnc3c(NC4CC4)nc(Cl)nc32)[C@H](O)[C@@H]1O)N1CCOCC1` gave a Ki of 4470 nM. Compared with the last compound, the Ki is about 1600-fold higher.
